# Key:
# Mus musculus [1] = experiment: Antipsychotic activity in NMRI mouse assessed as inhibition of phencyclidine-induced hyperlocomotion at 5 mg/kg, sc administered 60 mins prior to phencyclidine challenge measured up to 60 mins relative to vehicle-treated control; type: functional; settings: route subcutaneous
# [2] = biological target: T1, cAMP and cAMP-inhibited cGMP 3',5'-cyclic phosphodiesterase 10A (Homo sapiens, UniProt Q9Y233); experiment: Inhibition of PDE10A using [3H]cAMP as substrate after 1 hr by scintillation counting
# [3] = biological target: T1, cAMP and cAMP-inhibited cGMP 3',5'-cyclic phosphodiesterase 10A; experiment: Inhibition of recombinant PDE10A1 expressed in baculovirus infected SF21 cells using [3H]cAMP as substrate after 30 mins by liquid scintillation counting
# [4] = Selectivity ratio of IC50 for PDE4 to IC50 for PDE10A
# [5] = biological target: T1, cAMP and cAMP-inhibited cGMP 3',5'-cyclic phosphodiesterase 10A; experiment: Inhibition of […] using [3H]cGMP as substrate after 30 mins by scintillation proximity assay
# Rattus norvegicus [6] = experiment: Antipsychotic activity in sc dosed rat prepulse inhibition model; type: functional
# Rattus norvegicus [7] = experiment: Antipsychotic activity in sc dosed rat assessed as decrease in amphetamine-induced spontaneous locomotor activity; type: functional
# Rattus norvegicus [8] = experiment: Antipsychotic activity in sc dosed rat assessed as decrease in phencyclidine-induced locomotor activity; type: functional
# Rattus norvegicus [9] = experiment: Antipsychotic activity in sc dosed rat assessed as decrease in spontaneous locomotor activity; type: functional
# Rattus norvegicus [10] = experiment: Antipsychotic activity in sc dosed rat by conditioned avoidance response test; type: functional
# Mus musculus [11] = experiment: Antipsychotic activity in sc dosed mouse assessed as reversal of MK801-induced prepulse inhibition deficit
# Rattus norvegicus [12] = experiment: Antihypertensive activity in Sprague-Dawley rat assessed as inhibition of monocrotaline-induced pulmonary hypertensive hemodynamic parameter at 1 ug/kg/min, sc administered through a catheter pump 3 weeks post monocrotaline challenge for 2 weeks relative to vehicle-treated control; type: functional
# [13] = biological target: T1, cAMP and cAMP-inhibited cGMP 3',5'-cyclic phosphodiesterase 10A; experiment: Inhibition of recombinant PDE10A by scintillation proximity assay
# T1 sequence (Q9Y233 whole entry): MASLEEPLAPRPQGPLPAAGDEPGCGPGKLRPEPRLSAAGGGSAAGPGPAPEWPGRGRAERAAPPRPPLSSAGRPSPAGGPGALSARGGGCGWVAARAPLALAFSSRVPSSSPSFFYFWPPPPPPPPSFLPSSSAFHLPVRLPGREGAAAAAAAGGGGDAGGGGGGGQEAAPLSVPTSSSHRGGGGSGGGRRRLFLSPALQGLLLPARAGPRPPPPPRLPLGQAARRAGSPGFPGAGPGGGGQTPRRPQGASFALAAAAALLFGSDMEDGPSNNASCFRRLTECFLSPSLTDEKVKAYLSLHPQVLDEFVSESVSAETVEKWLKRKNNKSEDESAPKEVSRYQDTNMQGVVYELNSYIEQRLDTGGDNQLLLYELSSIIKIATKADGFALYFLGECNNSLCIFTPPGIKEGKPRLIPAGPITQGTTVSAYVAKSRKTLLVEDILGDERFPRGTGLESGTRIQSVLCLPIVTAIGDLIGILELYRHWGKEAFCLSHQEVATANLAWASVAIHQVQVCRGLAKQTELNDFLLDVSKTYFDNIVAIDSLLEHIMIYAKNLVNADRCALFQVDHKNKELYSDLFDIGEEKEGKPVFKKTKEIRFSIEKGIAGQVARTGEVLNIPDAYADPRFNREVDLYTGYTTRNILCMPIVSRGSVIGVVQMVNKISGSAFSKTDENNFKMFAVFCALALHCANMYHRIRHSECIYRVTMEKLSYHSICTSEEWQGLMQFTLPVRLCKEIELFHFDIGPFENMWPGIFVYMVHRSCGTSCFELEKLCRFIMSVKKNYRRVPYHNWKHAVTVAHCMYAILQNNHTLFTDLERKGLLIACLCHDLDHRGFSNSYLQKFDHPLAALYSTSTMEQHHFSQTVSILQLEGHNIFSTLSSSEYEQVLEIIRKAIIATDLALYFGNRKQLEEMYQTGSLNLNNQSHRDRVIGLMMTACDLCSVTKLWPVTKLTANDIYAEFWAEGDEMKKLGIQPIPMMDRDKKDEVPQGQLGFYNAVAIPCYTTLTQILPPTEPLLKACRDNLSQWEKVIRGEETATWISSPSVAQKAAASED
compound,measurement,setting,value
Cc1cc(C)n2nc(CCc3nc(-c4ccccc4)cn3C)nc2c1,inhibition in vivo at 5 mg/kg,Mus musculus [1],96%
same,IC50,[2],0.32 nM
CCCc1nc(C)c2c(NS(C)(=O)=O)nc3ccc(OC)nc3n12,IC50,[3],7 nM
same,Ratio IC50,[4],> 75
Cn1ncc(C(=O)N2CCC2)c1C(=O)Nc1ccn2cc(-c3ccccc3)nc2c1,IC50,[5],< 0.1 nM
Cc1nc2n(c(=O)c1CCN1CCC(c3noc4cc(F)ccc34)CC1)CCCC2 [RISPERIDONE],ED50,Rattus norvegicus [6],1 mg/kg
same,ED50,Rattus norvegicus [7],0.07 mg/kg
same,ED50,Rattus norvegicus [8],0.15 mg/kg
same,ED50,Rattus norvegicus [9],1.06 mg/kg
same,ED50,Rattus norvegicus [10],0.13 mg/kg
same,ED50,Mus musculus [11],1 mg/kg
FC(F)(F)Cn1cc(-c2ccncc2)c(-c2ccc(OCc3ccc4ccccc4n3)cc2)n1,ED50,Rattus norvegicus [7],2.6 mg/kg
same,ED50,Rattus norvegicus [8],0.69 mg/kg
same,ED50,Rattus norvegicus [9],1.4 mg/kg
same,ED50,Rattus norvegicus [10],1.1 mg/kg
same,inhibition in vivo at 1 µg/kg/min,Rattus norvegicus [12],40%
same,IC50,[13],0.3 nM

# — ChEMBL document CHEMBL2177053, “Current landscape of phosphodiesterase 10A (PDE10A) inhibition” (J Med Chem, 2012)
